27 compounds from US10758534B2 (Vertex Pharmaceuticals Incorporated, priority 2014, dated 2020) can be followed below.

The target in this experiment is T1, F508del (Homo sapiens, UniProt P13569, DEL508-508).
T1 construct: expressed in transfected cells
Nature of the experiment: Protocol 1: membrane potential optical assay (FLIPR III, voltage sensing dye), identification of potentiator compounds. In kind it is cell-based. As to conditions: Table 3, compounds of Table 1. In a few lines: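 Mouse NIH 3T3 fibroblasts stably expressing F508del, temperature-corrected at 27 °C for 24 h, pretreated with compound, then loaded with voltage-sensing redistribution dye. Forskolin was added in a single step with a chloride gradient (chloride-free gluconate bath; Bath Solution #1 HEPES pH 7.4). Membrane-potential fluorescence read on FLIPR III.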

T1 sequence (P13569 with tags, fused parts or gaps DEL508-508): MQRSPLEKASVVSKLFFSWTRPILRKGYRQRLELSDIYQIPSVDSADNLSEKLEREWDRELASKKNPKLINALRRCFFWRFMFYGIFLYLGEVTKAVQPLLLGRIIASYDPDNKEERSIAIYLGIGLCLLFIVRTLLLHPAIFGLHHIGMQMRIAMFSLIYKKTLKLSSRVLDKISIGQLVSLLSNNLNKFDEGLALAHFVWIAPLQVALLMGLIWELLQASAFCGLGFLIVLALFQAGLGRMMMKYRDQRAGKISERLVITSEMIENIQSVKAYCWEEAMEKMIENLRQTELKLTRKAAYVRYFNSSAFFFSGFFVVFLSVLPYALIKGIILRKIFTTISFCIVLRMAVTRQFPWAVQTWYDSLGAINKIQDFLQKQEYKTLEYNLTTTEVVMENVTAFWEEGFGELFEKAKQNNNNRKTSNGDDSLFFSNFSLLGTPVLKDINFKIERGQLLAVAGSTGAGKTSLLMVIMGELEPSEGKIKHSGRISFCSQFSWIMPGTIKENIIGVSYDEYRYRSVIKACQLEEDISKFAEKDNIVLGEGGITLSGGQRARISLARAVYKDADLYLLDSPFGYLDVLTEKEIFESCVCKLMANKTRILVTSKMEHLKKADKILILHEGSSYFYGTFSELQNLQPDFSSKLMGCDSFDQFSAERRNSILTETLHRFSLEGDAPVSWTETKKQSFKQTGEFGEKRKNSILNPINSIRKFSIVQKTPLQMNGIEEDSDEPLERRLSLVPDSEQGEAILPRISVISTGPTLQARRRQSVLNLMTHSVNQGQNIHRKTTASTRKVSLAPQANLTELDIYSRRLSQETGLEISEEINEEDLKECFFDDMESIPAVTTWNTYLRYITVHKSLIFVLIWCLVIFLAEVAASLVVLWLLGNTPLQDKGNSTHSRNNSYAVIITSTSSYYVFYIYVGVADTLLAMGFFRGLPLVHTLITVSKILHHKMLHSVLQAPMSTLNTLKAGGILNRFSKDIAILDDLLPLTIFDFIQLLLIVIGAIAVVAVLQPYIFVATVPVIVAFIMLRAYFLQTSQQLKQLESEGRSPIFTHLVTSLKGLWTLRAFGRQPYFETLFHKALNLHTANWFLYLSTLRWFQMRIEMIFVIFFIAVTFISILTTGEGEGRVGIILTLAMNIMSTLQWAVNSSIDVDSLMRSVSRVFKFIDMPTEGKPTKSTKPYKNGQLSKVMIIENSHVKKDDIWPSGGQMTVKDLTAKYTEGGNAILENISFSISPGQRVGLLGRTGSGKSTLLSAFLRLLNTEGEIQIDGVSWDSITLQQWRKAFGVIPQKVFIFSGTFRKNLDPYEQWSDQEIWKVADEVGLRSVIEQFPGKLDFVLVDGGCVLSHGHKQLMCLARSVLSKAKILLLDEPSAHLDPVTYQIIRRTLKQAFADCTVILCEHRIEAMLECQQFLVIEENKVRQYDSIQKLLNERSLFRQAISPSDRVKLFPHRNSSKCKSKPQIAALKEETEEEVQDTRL

As for `CC(C)COc1cc(F)cc(-c2nc(N3C[C@@H](C)CC3(C)C)c(C(=O)NS(=O)(=O)c3cccc(N)n3)cc2Cl)c1` [Compound 1641, N-[(6-amino-2-pyridyl)sulfonyl]-5-chloro-6-(3-fluoro-5-isobutoxy-phenyl)-2-[(4S)-2,2,4-trimethylpyrrolidin-1-yl]pyridine-3-carboxamide], the EC30 result is given as “+++ (“+++” means <3 uM)”.

As for `COCC1CCCN(c2nc(-c3cc(F)cc(OCC(C)C)c3)ccc2C(=O)NS(=O)(=O)c2ccn[nH]2)C1` (stereo not drawn) [Compound 1028, 6-(3-fluoro-5-isobutoxy-phenyl)-2-[3-(methoxymethyl)-1-piperidyl]-N-(1H-pyrazol-5-ylsulfonyl)pyridine-3-carboxamide], the EC30 entry is “++ (“++” means between 3 uM and 10 uM)”. Turning to `CC1CN(c2ncccc2C(=O)NS(=O)(=O)c2cccc(Nc3cccc(Cl)c3Cl)n2)C(C)(C)C1` (stereo not drawn) [Compound 1906, N—[[6-(2,3-dichloroanilino)-2-pyridyl]sulfonyl]-2-(2,2,4-trimethylpyrrolidin-1-yl)pyridine-3-carboxamide], the EC30 result is on record as “+++ (“+++” means <3 uM)”. Turning to `CC(C)COc1cc(F)cc(-c2ccc(C(=O)NS(=O)(=O)c3ccn[nH]3)c(N3CC(C)CC3(C)C)n2)c1` (stereo not drawn) [Compound 904, 6-(3-fluoro-5-isobutoxy-phenyl)-N-(1H-pyrazol-5-ylsulfonyl)-2-(2,2,4-trimethylpyrrolidin-1-yl)pyridine-3-carboxamide], the EC30 entry is “+++ (“+++” means <3 uM)”. For the compound `CC(C)COc1cc(F)cc(-c2ccc(C(=O)NS(=O)(=O)c3cccc(N)n3)c(N3CC(C(F)(F)F)CCC3C)n2)c1` (stereo not drawn) [Compound 1835, N-[(6-amino-2-pyridyl)sulfonyl]-6-(3-fluoro-5-isobutoxy-phenyl)-2-[2-methyl-5-(trifluoromethyl)-1-piperidyl]pyridine-3-carboxamide], the EC30 entry is reported as “+++ (“+++” means <3 uM)”. As to `CC1CN(c2nc(C(C)(C)C)c(C3=CCCCO3)cc2C(=O)NS(=O)(=O)c2cccc(N)n2)C(C)(C)C1` (stereo not drawn) [Compound 1485, N-[(6-amino-2-pyridyl)sulfonyl]-6-tert-butyl-5-(3,4-dihydro-2H-pyran-6-yl)-2-(2,2,4-trimethylpyrrolidin-1-yl)pyridine-3-carboxamide], the EC30 entry was “+++ (“+++” means <3 uM)”. On to `CC(C)COc1cc(F)cc(-c2ccc(C(=O)NS(=O)(=O)c3cccc(N)n3)c(N3CCC(C)(C)[C@H]3C)n2)c1` [Compound 1065, N-[(6-amino-2-pyridyl)sulfonyl]-6-(3-fluoro-5-isobutoxy-phenyl)-2-[(2R)-2,3,3-trimethylpyrrolidin-1-yl]pyridine-3-carboxamide], for which the EC30 result is reported as “+++ (“+++” means <3 uM)”.

With `Cc1c(F)cccc1-c1ccc(C(=O)NS(=O)(=O)c2cccnc2N)c(N2C[C@@H](C)CC2(C)C)n1` [Compound 1944, N-[(2-amino-3-pyridyl)sulfonyl]-6-(3-fluoro-2-methyl-phenyl)-2-[(4S)-2,2,4-trimethylpyrrolidin-1-yl]pyridine-3-carboxamide], the EC30 result is on record as “+++ (“+++” means <3 uM)”. With `CC(C)COc1ccc(-c2ccc(C(=O)NS(=O)(=O)c3ccc[nH]c3=O)c(N3CCC(C)CC3)n2)cc1` [Compound 1017, 6-(4-isobutoxyphenyl)-2-(4-methyl-1-piperidyl)-N-[(2-oxo-1H-pyridin-3-yl)sulfonyl]pyridine-3-carboxamide], the EC30 entry is “++ (“++” means between 3 uM and 10 uM)”. As for `Cc1cc(C)c(Oc2ncc(-c3ccccc3)cc2C(=O)NS(=O)(=O)c2cccc(N)c2)c(C)c1` [Compound 1321, N-(3-aminophenyl)sulfonyl-5-phenyl-2-(2,4,6-trimethylphenoxy)pyridine-3-carboxamide], the entry is “++ (“++” means between 3 uM and 10 uM)”; as for `Cc1cc(C)c(Oc2nc(C3=CC(C)(C)OC3(C)C)ccc2C(=O)NS(=O)(=O)c2cccc(N)n2)c(C)c1` [Compound 1609, N-[(6-amino-2-pyridyl)sulfonyl]-6-(2,2,5,5-tetramethyl-3-furyl)-2-(2,4,6-trimethylphenoxy)pyridine-3-carboxamide], “+++ (“+++” means <3 uM)”; as for `CC(C)Oc1ccc(-c2ccc(C(=O)NS(=O)(=O)c3cccc(N)n3)c(N3CCC(C)C(C)C3)n2)cn1` (stereo not drawn) [Compound 979, N-[(6-amino-2-pyridyl)sulfonyl]-2-(3,4-dimethyl-1-piperidyl)-6-(6-isopropoxy-3-pyridyl)pyridine-3-carboxamide], “+++ (“+++” means <3 uM)”. Regarding `CC(C)COc1cc(F)cc(-c2ccc(C(=O)NS(=O)(=O)c3cccc(N)n3)c(N3C[C@@H](F)C[C@H]3C)n2)c1` [Compound 1362, N-[(6-amino-2-pyridyl)sulfonyl]-6-(3-fluoro-5-isobutoxy-phenyl)-2-[(2R,4S)-4-fluoro-2-methyl-pyrrolidin-1-yl]pyridine-3-carboxamide], the EC30 entry is listed as “+++ (“+++” means <3 uM)”.

Turning to `CC(C)COc1cc(F)cc(-c2ccc(C(=O)NS(=O)(=O)c3cccnc3N)c(N3C[C@@H](C)CC3(C)C)n2)c1` [Compound 1593, N-[(2-amino-3-pyridyl)sulfonyl]-6-(3-fluoro-5-isobutoxy-phenyl)-2-[(4S)-2,2,4-trimethylpyrrolidin-1-yl]pyridine-3-carboxamide], the EC30 result is reported as “+++ (“+++” means <3 uM)”. As for `COc1ccc(-c2ccc(C(=O)NS(=O)(=O)c3ccc[nH]c3=O)c(Oc3c(C)cc(C)cc3C)n2)cc1` [Compound 980, 6-(4-methoxyphenyl)-N-[(2-oxo-1H-pyridin-3-yl)sulfonyl]-2-(2,4,6-trimethylphenoxy)pyridine-3-carboxamide], the entry is “++ (“++” means between 3 uM and 10 uM)”; as for `CCOc1cccc2c1CN(Cc1c(C)cc(C)cc1C)C2(C)C(=O)NS(=O)(=O)c1ccncc1` (stereo not drawn) [Compound 1449, 4-ethoxy-1-methyl-N-(4-pyridylsulfonyl)-2-[(2,4,6-trimethylphenyl)methyl]isoindoline-1-carboxamide], “+++ (“+++” means <3 uM)”. Take `Cc1cc(C)c(Oc2nc(-c3ccc4cn(C)nc4c3)ccc2C(=O)NS(=O)(=O)c2cccc(N)n2)c(C)c1` [Compound 1299, N-[(6-amino-2-pyridyl)sulfonyl]-6-(2-methylindazol-6-yl)-2-(2,4,6-trimethylphenoxy)pyridine-3-carboxamide]: the EC30 result was “++ (“++” means between 3 uM and 10 uM)”. As for `CC(C)COc1cc(F)cc(-c2ccc(C(=O)NS(=O)(=O)c3ccn[nH]3)c(N3CCCC(C)(C)C3)n2)c1` [Compound 1005, 2-(3,3-dimethyl-1-piperidyl)-6-(3-fluoro-5-isobutoxy-phenyl)-N-(1H-pyrazol-5-ylsulfonyl)pyridine-3-carboxamide], the EC30 entry is “+++ (“+++” means <3 uM)”. On to `COCC1CCCN(c2cccc(S(=O)(=O)NC(=O)c3cccnc3N3CC(C)CC3(C)C)n2)C1` (stereo not drawn) [Compound 1805, N—[[6-[3-(methoxymethyl)-1-piperidyl]-2-pyridyl]sulfonyl]-2-(2,2,4-trimethylpyrrolidin-1-yl)pyridine-3-carboxamide], for which the EC30 entry was “++ (“++” means between 3 uM and 10 uM)”.

On to `CC(=O)N1CCC(c2ccc(C(=O)NS(=O)(=O)c3cccc(N)n3)c(N3C[C@@H](C)CC3(C)C)n2)CC1` [Compound 1634, 6-(1-acetyl-4-piperidyl)-N-[(6-amino-2-pyridyl)sulfonyl]-2-[(4S)-2,2,4-trimethylpyrrolidin-1-yl]pyridine-3-carboxamide], for which the EC30 entry is “++ (“++” means between 3 uM and 10 uM)”. `CC(=O)C1CC=C(c2cc(C(=O)NS(=O)(=O)c3cccc(N)n3)c(N3CC(C)CC3(C)C)nc2C(C)(C)C)CC1` (stereo not drawn) [Compound 1461, 5-(4-acetylcyclohexen-1-yl)-N-[(6-amino-2-pyridyl)sulfonyl]-6-tert-butyl-2-(2,2,4-trimethylpyrrolidin-1-yl)pyridine-3-carboxamide]: the EC30 result is “+++ (“+++” means <3 uM)”. Regarding `CC(C)COc1cc(F)cc(-c2ccc(C(=O)NS(=O)(=O)c3cccc(N)n3)c(OC3C[C@@H]4C[C@@H]4C3)n2)c1` (stereo partly drawn) [Compound 1077, N-[(6-amino-2-pyridyl)sulfonyl]-2-[[(1R,5S)-3-bicyclo[3.1.0]hexanyl]oxy]-6-(3-fluoro-5-isobutoxy-phenyl)pyridine-3-carboxamide], the EC30 entry was “+++ (“+++” means <3 uM)”. Turning to `CC(C)COc1cc(F)cc(-c2ccc(C(=O)NS(=O)(=O)c3cccc(N)n3)c(OCC3CC3)n2)c1` [Compound 1229, N-[(6-amino-2-pyridyl)sulfonyl]-2-(cyclopropylmethoxy)-6-(3-fluoro-5-isobutoxy-phenyl)pyridine-3-carboxamide], the EC30 result was “+++ (“+++” means <3 uM)”. Regarding `CCCC/C=C/c1cnc(N2CC(C)CC2(C)C)c(C(=O)NS(=O)(=O)c2cccc(N)n2)c1` (stereo not drawn) [Compound 1916, N-[(6-amino-2-pyridyl)sulfonyl]-5-[(E)-hex-1-enyl]-2-(2,2,4-trimethylpyrrolidin-1-yl)pyridine-3-carboxamide], the EC30 result is reported as “+++ (“+++” means <3 uM)”. On to `Cc1cc(C)c(CN2Cc3ccccc3C2(C)C(=O)NS(=O)(=O)c2ccc[nH]c2=O)c(C)c1` (stereo not drawn) [Compound 1237, 1-methyl-N-[(2-oxo-1H-pyridin-3-yl)sulfonyl]-2-[(2,4,6-trimethylphenyl)methyl]isoindoline-1-carboxamide], for which the EC30 entry is “++ (“++” means between 3 uM and 10 uM)”. The result for `Cc1cc(C)c(CN2C(C(=O)NS(=O)(=O)c3ccc[nH]c3=O)c3ccccc3C2(C)C)c(C)c1` (stereo not drawn) [Compound 1085, 3,3-dimethyl-N-[(2-oxo-1H-pyridin-3-yl)sulfonyl]-2-[(2,4,6-trimethylphenyl)methyl]isoindoline-1-carboxamide] reads “+++ (“+++” means <3 uM)”; that for `C[C@@H]1CN(c2nc(C3=COCC3)ccc2C(=O)NS(=O)(=O)c2cccc(N)n2)C(C)(C)C1` [Compound 1455, N-[(6-amino-2-pyridyl)sulfonyl]-6-(2,3-dihydrofuran-4-yl)-2-[(4S)-2,2,4-trimethylpyrrolidin-1-yl]pyridine-3-carboxamide], “+++ (“+++” means <3 uM)”.
